Test results published in patent US11851406B2, “Positive allosteric modulators of the muscarinic acetylcholine receptor M1” (Vanderbilt University, priority 2018, dated 2023).

Tests used:
[1] = target: T1, human mAChR M1 (Homo sapiens, UniProt P11229); assay: mAChR M1 cell-based functional assay (calcium mobilization), agonist activity upon compound addition alone; conditions: CHO-K1 cells expressing hM1; for EC50: calcium mobilization upon compound addition, no acetylcholine; for Emax: compound alone, relative to the maximum for acetylcholine
T1 sequence (P11229 1-460): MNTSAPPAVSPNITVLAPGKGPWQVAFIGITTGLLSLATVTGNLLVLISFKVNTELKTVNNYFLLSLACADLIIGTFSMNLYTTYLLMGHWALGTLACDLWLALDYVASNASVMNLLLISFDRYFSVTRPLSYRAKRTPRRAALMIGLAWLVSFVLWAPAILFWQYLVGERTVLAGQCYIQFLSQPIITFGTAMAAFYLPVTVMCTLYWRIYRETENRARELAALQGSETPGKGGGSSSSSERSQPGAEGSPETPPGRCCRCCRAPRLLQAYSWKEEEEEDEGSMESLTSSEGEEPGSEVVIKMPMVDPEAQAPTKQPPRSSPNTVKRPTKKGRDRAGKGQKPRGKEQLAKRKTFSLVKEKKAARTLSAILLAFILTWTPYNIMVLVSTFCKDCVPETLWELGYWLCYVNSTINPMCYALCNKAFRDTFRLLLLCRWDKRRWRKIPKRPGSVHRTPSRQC
Method in brief: (§1)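 Calcium mobilization in CHO-K1 cells stably expressing hM1, Fluo-4 loaded; 11-point 1:3 compound series added at 4 s, acetylcholine EC20 at 144 s, kinetic fluorescence ratio at 1 Hz. Agonism: rise on compound alone, Emax relative to acetylcholine maximum; PAM: potentiation of EC20 response; four-parameter logistic fits.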

[2] = target: T1, human mAChR M1; assay: mAChR M1 cell-based functional assay (calcium mobilization), PAM activity: increase in the EC20 acetylcholine response; conditions: CHO-K1 cells expressing hM1; calcium flux (Fluo-4); potentiation of EC20 acetylcholine response
Method in brief: as §1

`Cc1c(Cc2ccc(-c3cnn(C)c3)nc2)cc(C(=O)NC2CCOCC2)nc1-n1cccn1` [Compound 50, 5-methyl-4-((6-(1-methyl-1H-pyrazol-4-yl)pyridin-3-yl)methyl)-6-(1H-pyrazol-1-yl)-N-(tetrahydro-2H-pyran-4-yl)picolinamide] gave an EC50 [1] greater than 10 µM, an Emax [1] of less than 5% and an Emax [2] of 65%.

Compound `Cc1nc(-c2ccc(Cc3cc(C(=O)NC4CCOCC4)nc(-n4cccn4)c3C)cc2)co1` [Compound 51, 5-methyl-4-(4-(2-methyloxazol-4-yl)benzyl)-6-(1H-pyrazol-1-yl)-N-(tetrahydro-2H-pyran-4-yl)picolinamide] has an EC50 [1] greater than 10 µM, an Emax [1] of less than 5% and an Emax [2] of 69%.

`Cc1c(Cc2ccc(-c3ccn(C)n3)nc2)cc(C(=O)N[C@H]2CCC[C@@H]2O)nc1-n1cccn1` [Compound 52, N-((1S,2S)-2-hydroxycyclopentyl)-5-methyl-4-((6-(1-methyl-1H-pyrazol-3-yl)pyridin-3-yl)methyl)-6-(1H-pyrazol-1-yl)picolinamide] showed an EC50 [1] greater than 10 µM, an Emax [1] of 9% and an EC50 [2] of 5.03 µM. The Emax [2] was 84%.

Compound `Cc1c(Cc2ccc(-c3cnn(C)c3)nc2)cc(C(=O)N[C@H]2CCC[C@@H]2O)nc1-n1cccn1` [Compound 53, N-((1S,2S)-2-hydroxycyclopentyl)-5-methyl-4-((6-(1-methyl-1H-pyrazol-4-yl)pyridin-3-yl)methyl)-6-(1H-pyrazol-1-yl)picolinamide] has an EC50 [1] greater than 10 µM, an Emax [1] of 5% and an EC50 [2] of 3.96 µM. For the same compound, the Emax [2] was 75%.

`Cc1nc(-c2ccc(Cc3cc(C(=O)N[C@H]4CCC[C@@H]4O)nc(-n4cccn4)c3C)cc2)co1` [Compound 54, N-((1S,2S)-2-hydroxycyclopentyl)-5-methyl-4-(4-(2-methyloxazol-4-yl)benzyl)-6-(1H-pyrazol-1-yl)picolinamide] showed an EC50 [1] greater than 10 µM, an Emax [1] of less than 5% and an EC50 [2] of 3.87 µM. It also gave an Emax [2] of 52%.

With `Cc1c(Cc2ccc(-n3cccn3)cc2)cc(C(=O)N[C@H]2CCOC[C@@H]2O)nc1-c1ccn(C)n1` [Compound 55, 4-(4-(1H-pyrazol-1-yl)benzyl)-N-((3R,4S)-3-hydroxytetrahydro-2H-pyran-4-yl)-5-methyl-6-(1-methyl-1H-pyrazol-3-yl)picolinamide] the EC50 [1] was 6.7 µM, the Emax [1] was 22% and the EC50 [2] was 0.324 µM. The Emax [2] was 77%.

With `Cc1c(Cc2ccc(-n3cccn3)cc2)cc(C(=O)N[C@H]2CCCC[C@@H]2O)nc1-c1ccn(C)n1` [Compound 56, 4-(4-(1H-pyrazol-1-yl)benzyl)-N-((1S,2S)-2-hydroxycyclohexyl)-5-methyl-6-(1-methyl-1H-pyrazol-3-yl)picolinamide] the EC50 [1] was greater than 10 µM, the Emax [1] was less than 5% and the EC50 [2] was 0.906 µM. It also gave an Emax [2] of 81%.

Compound `Cc1c(Cc2ccc(-n3cccn3)cc2)cc(C(=O)NC2CCOCC2)nc1-c1ccn(C)n1` [Compound 57, 4-(4-(1H-pyrazol-1-yl)benzyl)-5-methyl-6-(1-methyl-1H-pyrazol-3-yl)-N-(tetrahydro-2H-pyran-4-yl)picolinamide] has an EC50 [1] greater than 10 µM, an Emax [1] of less than 5% and an EC50 [2] of 5.7 µM. The Emax [2] was 81%.

`Cc1c(Cc2ccc(-n3cccn3)cc2)cc(C(=O)NC2CC3(COC3)C2)nc1-c1ccn(C)n1` [Compound 58, 4-(4-(1H-pyrazol-1-yl)benzyl)-5-methyl-6-(1-methyl-1H-pyrazol-3-yl)-N-(2-oxaspiro[3.3]heptan-6-yl)picolinamide] showed an EC50 [1] greater than 10 µM, an Emax [1] of less than 5% and an EC50 [2] of 6 µM. It also gave an Emax [2] of 83%.

In the case of `Cc1c(Cc2ccc(-n3cccn3)cc2)cc(C(=O)N[C@H]2CCC[C@@H]2O)nc1-c1ccn(C)n1` [Compound 59, 4-(4-(1H-pyrazol-1-yl)benzyl)-N-((1S,2S)-2-hydroxycyclopentyl)-5-methyl-6-(1-methyl-1H-pyrazol-3-yl)picolinamide], the EC50 [1] is reported as greater than 10 µM, the Emax [1] is reported as less than 5% and the EC50 [2] is reported as 1.98 µM. For the same compound, the Emax [2] was 85%.

`Cc1c(Cc2ccc(-n3cccn3)cc2)cc(C(=O)N[C@H]2CC[C@@H]2O)nc1-c1ccn(C)n1` [Compound 60, 4-(4-(1H-pyrazol-1-yl)benzyl)-N-((1S,2S)-2-hydroxycyclobutyl)-5-methyl-6-(1-methyl-1H-pyrazol-3-yl)picolinamide] gave an EC50 [1] greater than 10 µM, an Emax [1] of less than 5% and an Emax [2] of 79%.

`Cc1c(Cc2ccc(-n3cccn3)cc2)cc(C(=O)NCC2CCOCC2)nc1-c1ccn(C)n1` [Compound 61, 4-(4-(1H-pyrazol-1-yl)benzyl)-5-methyl-6-(1-methyl-1H-pyrazol-3-yl)-N-((tetrahydro-2H-pyran-4-yl)methyl)picolinamide] showed an EC50 [1] greater than 10 µM, an Emax [1] of less than 5% and an Emax [2] of 64%.

In the case of `Cc1c(Cc2ccc(-n3cccn3)cc2)cc(C(=O)NC[C@@H]2CCCO2)nc1-c1ccn(C)n1` [Compound 62, (S)-4-(4-(1H-pyrazol-1-yl)benzyl)-5-methyl-6-(1-methyl-1H-pyrazol-3-yl)-N-((tetrahydrofuran-2-yl)methyl)picolinamide], the EC50 [1] is reported as greater than 10 µM, the Emax [1] is reported as less than 5% and the EC50 [2] is reported as 4.63 µM. It also gave an Emax [2] of 77%.

In the case of `Cc1c(Cc2ccc(-n3cccn3)cc2)cc(C(=O)NC[C@H]2CCCO2)nc1-c1ccn(C)n1` [Compound 63, (R)-4-(4-(1H-pyrazol-1-yl)benzyl)-5-methyl-6-(1-methyl-1H-pyrazol-3-yl)-N-((tetrahydrofuran-2-yl)methyl)picolinamide], the EC50 [1] is reported as greater than 10 µM, the Emax [1] is reported as less than 5% and the Emax [2] is reported as 57%.

`Cc1c(Cc2ccc(-n3cccn3)cc2)cc(C(=O)NC2CCOCC2(C)C)nc1-c1ccn(C)n1` (stereo not shown) [Compound 64, 4-(4-(1H-pyrazol-1-yl)benzyl)-N-(3,3-dimethyltetrahydro-2H-pyran-4-yl)-5-methyl-6-(1-methyl-1H-pyrazol-3-yl)picolinamide] gave an EC50 [1] greater than 10 µM, an Emax [1] of less than 5% and an EC50 [2] of 2.89 µM. It also gave an Emax [2] of 91%.

`Cc1ccc(Cc2cc(C(=O)N[C@H]3CCOC[C@@H]3O)nc(-c3ccn(C)n3)c2C)cn1` [Compound 65, N-((3R,4S)-3-hydroxytetrahydro-2H-pyran-4-yl)-5-methyl-6-(1-methyl-1H-pyrazol-3-yl)-4-((6-methylpyridin-3-yl)methyl)picolinamide] showed an EC50 [1] greater than 10 µM, an Emax [1] of less than 5% and an Emax [2] of 71%.

`Cc1ccc(Cc2cc(C(=O)N[C@H]3CCCC[C@@H]3O)nc(-c3ccn(C)n3)c2C)cn1` [Compound 66, N-((1S,2S)-2-hydroxycyclohexyl)-5-methyl-6-(1-methyl-1H-pyrazol-3-yl)-4-((6-methylpyridin-3-yl)methyl)picolinamide] gave an EC50 [1] greater than 10 µM, an Emax [1] of less than 5% and an Emax [2] of 66%.

`Cc1ccc(Cc2cc(C(=O)N[C@H]3CCC[C@@H]3O)nc(-c3ccn(C)n3)c2C)cn1` [Compound 67, N-((1S,2S)-2-hydroxycyclopentyl)-5-methyl-6-(1-methyl-1H-pyrazol-3-yl)-4-((6-methylpyridin-3-yl)methyl)picolinamide] showed an EC50 [1] greater than 10 µM, an Emax [1] of less than 5% and an Emax [2] of 38%.
